Data reported in DBAASP.
In brackets after ≈: the same amount, converted by molar mass.

Assays:
Assay in all cases: ≥ marks a high value that may be exact or a test limit, other limits are often not marked, values filed in µg/mL are converted to µM
[1] = tested on: Pseudomonas fluorescens DSM 50124
Bacillus cereus DSM 4222 = tested on: Bacillus cereus DSM 4222
Bacillus cereus DSM 4312 = tested on: Bacillus cereus DSM 4312
[2] = tested on: Clostridium perfringens ATCC 13124
[3] = tested on: Staphylococcus aureus ATCC 3300
[4] = tested on: Clostridium perfringens DSM 11784
[5] = tested on: Pseudomonas putida DSM 291
[6] = tested on: Escherichia coli ATCC 35150
[7] = tested on: Staphylococcus aureus DSM 2569
[8] = tested on: Escherichia coli NCTC 13452
[9] = tested on: Bacillus subtilis ATCC 6051
[10] = tested on: Escherichia coli NEB5alpha
Listeria monocytogenes = tested on: Listeria monocytogenes
[11] = tested on: Salmonella typhimurium DSM 19587
[12] = tested on: Listeria monocytogenes SLCC 5581
[13] = tested on: Salmonella enterica subsp. enterica serovar Typhimurium DSM 554
[14] = tested on: Staphylococcus aureus FDA 209P
[15] = tested on: Escherichia coli ATCC 25922
[16] = tested on: Escherichia coli ATCC 8739
[17] = tested on: Edwardsiella tarda ATCC 15947
[18] = tested on: Staphylococcus aureus ATCC 33592
Syspastospora parasitica = tested on: Syspastospora parasitica
[19] = tested on: Vibrio parahaemolyticus ATCC 17802
Aeromonas salmonicida = tested on: Aeromonas salmonicida
[20] = tested on: Staphylococcus epidermidis ATCC 35984
[21] = tested on: Pseudomonas aeruginosa ATCC 9027
Aeromonas hydrophila = tested on: Aeromonas hydrophila
[22] = tested on: Klebsiella pneumoniae ATCC 700603
[23] = tested on: Acinetobacter baumannii 9931
[24] = tested on: Pseudomonas aeruginosa 50
Escherichia coli 780 = tested on: Escherichia coli 780
[25] = tested on: Staphylococcus aureus ATCC 29213
Escherichia coli 804 = tested on: Escherichia coli 804
[26] = tested on: Bacillus subtilis ATCC 23857
[27] = tested on: Staphylococcus aureus 113
[28] = tested on: Acinetobacter baumannii 97830
[29] = tested on: Pseudomonas aeruginosa ATCC 27853
Staphylococcus aureus 75 = tested on: Staphylococcus aureus 75
[30] = tested on: Pseudomonas aeruginosa 73
[31] = tested on: Staphylococcus epidermidis ATCC 12228
[32] = tested on: Acinetobacter baumannii ATCC 19606
[33] = tested on: Pseudomonas aeruginosa PA14
[34] = tested on: Acinetobacter baumannii ATCC 7978
[35] = tested on: Enterococcus faecium E007
[36] = tested on: Staphylococcus aureus ATCC 29231

SMILES: CC[C@H](C)[C@H](NC(=O)[C@@H](N)CCCN=C(N)N)C(=O)N[C@@H](CCCCN)C(=O)N[C@H](C(=O)N[C@H](C(=O)N[C@H](C(=O)N[C@@H](CO)C(=O)N[C@@H](Cc1ccccc1)C(=O)N[C@@H](CC(=O)O)C(=O)N[C@@H](CC(C)C)C(=O)N1CCC[C@H]1C(=O)N[C@@H](C)C(=O)N[C@@H](CC(C)C)C(=O)N[C@@H](CCCN=C(N)N)C(=O)N[C@@H](Cc1ccccc1)C(=O)N[C@@H](CC(C)C)C(=O)N[C@@H](CCCCN)C(=O)N[C@@H](CC(C)C)C(=O)O)[C@@H](C)O)C(C)C)[C@@H](C)O [RIKTVTSFDLPALRFLKL]
- MIC [1]: ≥ 500 µM
- MIC (Bacillus cereus DSM 4222): ≥ 1000 µM
- MIC (Bacillus cereus DSM 4312): ≥ 1000 µM
- MIC [2]: ≥ 125 µM
- MIC [3]: ≥ 500 µM
- MIC [4]: ≥ 1000 µM
- MIC [5]: ≥ 125 µM
- MIC [6]: ≥ 500 µM
- MIC [7]: ≥ 500 µM
- MIC [8]: ≥ 125 µM
- MIC [9]: 15.6 µM (≈ 33.1 µg/mL)
- MIC [10]: ≥ 62.5 µM
- MIC (Listeria monocytogenes): ≥ 250 µM
- MIC [11]: ≥ 1000 µM
- MIC [12]: ≥ 500 µM
- MIC [13]: ≥ 1000 µM

SMILES: CC[C@H](C)[C@H](NC(=O)[C@H](CCSC)NC(=O)[C@H](CCCCN)NC(=O)[C@@H](NC(=O)[C@H](C)NC(=O)CNC(=O)[C@H](CCCCN)NC(=O)[C@@H](NC(=O)[C@H](CC(C)C)NC(=O)[C@@H](NC(=O)[C@H](Cc1ccccc1)NC(=O)[C@H](CC(C)C)NC(=O)CN)[C@@H](C)O)[C@@H](C)CC)C(C)C)C(=O)NCC(=O)N[C@@H](CCCCN)C(=O)N[C@H](C(=O)N[C@H](C(=O)N[C@@H](C)C(=O)N[C@@H](CCCCN)C(=O)N[C@@H](CCC(=O)O)C(=O)N[C@@H](C)C(=O)NCC(=O)N[C@@H](CCCCN)C(=O)N[C@H](C(=O)NCC(=O)N[C@@H](CC(C)C)C(=O)N[C@@H](CCC(=O)O)C(=O)N[C@@H](CC(C)C)C(=O)N[C@@H](CCSC)C(=O)N[C@@H](C)C(=O)N[C@H]1CSSC[C@@H](C(=O)O)NC(=O)[C@H](CCC(N)=O)NC(=O)[C@H](CC(N)=O)NC(=O)[C@H]([C@@H](C)O)NC(=O)[C@H](C(C)C)NC(=O)[C@H](CCCCN)NC1=O)[C@@H](C)O)C(C)C)[C@@H](C)O [GLFTLIKGAVKMIGKTVAKEAGKTGLELMACKVTNQC]
- MIC [14]: 2.6 µM (≈ 10 µg/mL)
- MIC [15]: 1.1 µM (≈ 4.24 µg/mL)

SMILES: NC(=O)[C@H](Cc1ccc(O)cc1)NC(=O)[C@H](Cc1c[nH]c2ccccc12)NC(=O)[C@H](CCCN=C(N)N)NC(=O)[C@H](CCCN=C(N)N)NC(=O)[C@H](Cc1ccc(O)cc1)NC(=O)[C@H](Cc1c[nH]c2ccccc12)NC(=O)[C@H](CCCN=C(N)N)NC(=O)[C@H](CCCN=C(N)N)NC(=O)[C@H](Cc1ccc(O)cc1)NC(=O)[C@H](Cc1c[nH]c2ccccc12)NC(=O)[C@H](CCCN=C(N)N)NC(=O)[C@@H](N)CCCN=C(N)N [RRWYRRWYRRWY]
- MIC [16]: 7.81 µM (≈ 15.6 µg/mL)
- MIC [17]: ≥ 62.5 µM
- MIC [18]: 31.2 µM (≈ 62.6 µg/mL)
- MIC (Syspastospora parasitica): 7.81 µM (≈ 15.6 µg/mL)
- MIC [19]: ≥ 125 µM
- MIC (Aeromonas salmonicida): ≥ 500 µM
- MIC [20]: 15.6 µM (≈ 31.3 µg/mL)
- MIC [21]: 0.49 µM (≈ 0.981 µg/mL)
- MIC (Aeromonas hydrophila): ≥ 125 µM

SMILES: NCC(=O)N[C@@H](CCCN=C(N)N)C(=O)N[C@@H](CCCN=C(N)N)C(=O)N[C@@H](Cc1c[nH]c2ccccc12)C(=O)N[C@@H](Cc1c[nH]c2ccccc12)C(=O)N[C@@H](Cc1c[nH]c2ccccc12)C(=O)N[C@@H](CCCN=C(N)N)C(=O)N[C@@H](CCCN=C(N)N)C(=O)NCC(N)=O [GRRWWWRRG]
- MIC [22]: 128 µM (≈ 168 µg/mL)
- MIC [23]: ≥ 64 µM
- MIC [24]: ≥ 128 µM
- MIC (Escherichia coli 780): ≥ 32 µM
- MIC [25]: 2 µM (≈ 2.63 µg/mL)
- MIC [21]: 128 µM (≈ 168 µg/mL)
- MIC (Escherichia coli 804): ≥ 32 µM
- MIC [26]: 4 µM (≈ 5.26 µg/mL)
- MIC [27]: 8 µM (≈ 10.5 µg/mL)
- MIC [28]: ≥ 128 µM
- MIC [29]: > 128 µM
- MIC (Staphylococcus aureus 75): 8 µM (≈ 10.5 µg/mL)
- MIC [30]: ≥ 128 µM
- MIC [31]: 4 µM (≈ 5.26 µg/mL)
- MIC [32]: 128 µM (≈ 168 µg/mL)

SMILES: CC[C@H](C)[C@H](NC(=O)[C@H](CCCCN)NC(=O)[C@H](Cc1c[nH]c2ccccc12)NC(=O)[C@@H](N)CC(C)C)C(=O)NCC(=O)N[C@@H](CCCCN)C(=O)N[C@@H](CCCCN)C(=O)N[C@H](C(=O)N[C@@H](Cc1c[nH]c2ccccc12)C(=O)N[C@@H](CCCN=C(N)N)C(=O)N[C@H](C(=O)N[C@@H](CC(C)C)C(=O)N[C@@H](Cc1c[nH]c2ccccc12)C(=O)N[C@@H](CC(N)=O)C(=O)N[C@@H](Cc1c[nH]c2ccccc12)C(=O)N[C@@H](CCCN=C(N)N)C(=O)O)C(C)C)[C@@H](C)CC [LWKIGKKIWRVLWNWR]
- MIC [33]: 14.7 µM (≈ 32 µg/mL)
- MIC [34]: 7.33 µM (≈ 16 µg/mL)
- MIC [35]: ≥ 58.6 µM
- MIC [36]: 1.83 µM (≈ 3.99 µg/mL)
